Literature values in patent publication US20220354783A1, “INJECTABLE PROLONGED-ACTION COMPOSITIONS FOR USE IN THE TREATMENT OF NAIL DISEASE AND/OR FOR PROMOTING NAIL GROWTH” (EDIX-O SARL, priority 2018, published 2022).

Tested on: nail diseases
Settings: oral forms, 250 mg per day for 6 to 12 weeks

Question: With `CN(C/C=C/C#CC(C)(C)C)Cc1cccc2ccccc12` [terbinafine] as the molecule, how does the “total healing in clinical studies” value read?
Answer: Its value is 38%.
